Results on 2 molecules are retold here after patent publication US20050267076A1 (priority 2004, published 2005).

Like-named read-outs stand apart in the source and are kept apart here.

The test system of one series is Long-Evans rats. As to the kind of experiment: 8 hour retention test on a twelve-arm radial maze (spatial memory). Type of series: in vivo, rat. Conditions: vs vehicle, t(11)=2.69, p<0.02. How it is done: 12-arm maze test: Behavioral testing was conducted by an experimenter who was blind to drug treatment. 12 Long-Evans rats trained to use a win-shift strategy were given an information trial. During the information trial, 5 of the 12 arms of the 12 arm maze were blocked so that rats were not able to consume food from those blocked arms but could obtain food from each of the 7 open arms. After this session rats were moved to their home cage and placed back in the animal holding room. […] A retroactive memory error is made when the rat enters an arm that was […] on the information trial.
12 rats (divided into three groups) were used in the experiment. Sixty minutes prior to the information session, the rats were injected intraperitoneally (IP) with 150 mg/kg ABPA (Saegis Pharmaceuticals, Inc.), 3 mg/kg donepezil, or combination of 150 mg/kg ABPA and 3 mg/kg donepezil. Physiological saline (NaCl) was used as vehicle. Treatment order was counterbalanced among three groups such that each group (N=4) received a different order of vehicle, ABPA, donepezil, and ABPA+donepezil injection across days, for a total of three tests for each treatment in all subjects.

In the next series the test system is rats. Type of series: in vivo, rat. To be noted: for performance in the object recognition task: vs saline; for Recognition Score: saline 61%. How it is done:
The experimental protocol is as follows:
[…]. Both drugs were administered by intraperitoneal (IP) injection. […].

For series [1] the following is noted: cited from earlier work.
For series [2] the following is noted: in vivo; cited from earlier work.
In the next series the test system is humans. Conditions: cited from earlier work.

Consider `CCCCP(=O)(O)CCCN` [ABPA, 3-aminopropyl-(n-butyl)-phosphinic acid], for which, in the series on Long-Evans rats (150 mg/kg ABPA IP 60 min prior to information session), the “retention test performance on the 12-arm maze” value is reported as “improved performance”. The “performance in the object recognition task” value with rats (ABPA 3 and 30 mg/kg IP 30 min prior to information trial, delay of 6 hours) is “no beneficial effect”; in the series with rats (ABPA 10, 100, 170, and 300 mg/kg IP 30 min prior to information trial, delay of 6 hours), “significantly enhanced performance”. The results for the “Recognition Score” value in the series on rats (ABPA alone at 3 mg/kg) and in the series with rats (ABPA alone at 10 mg/kg) were 61% and 70%, respectively. In series [1], the water solubility entry was “highly water-soluble”. Besides, in series [2], the “blood brain barrier crossing” value is “readily crosses the blood brain barrier”.
As to `COc1cc2c(cc1OC)C(=O)C(CC1CCN(Cc3ccccc3)CC1)C2` (racemic) [donepezil, (±)-2,3-dihydro-5,6-dimethoxy-2-[[1-(phenylmethyl)-4-piperidinyl]methyl]-1H-inden-1-one, reference compound], in the series on Long-Evans rats (3 mg/kg donepezil IP 60 min prior to information session), the “retention test performance on the 12-arm maze” value is listed as “improved performance”. In addition, the “performance in the object recognition task” value with rats (donepezil 1.7 mg/kg IP 30 min prior to information trial) is given as “significantly improved performance”. For the same molecule, the “Recognition Score” value with rats (donepezil alone at 0.56 mg/kg) stood at 62%; with rats (donepezil alone at 1 mg/kg), 63%. Further, in the series on humans (Barner and Gray, 1998, Rogers and Friedhoff), the “cognitive effect in Alzheimer's Disease patients” value was “slight cognitive improvements”. Also, the “side effect profile in humans” value in the series with humans (human, in vivo) was “cholinergic side effect profile”.
